Source: patent US20250250542A1, “CULTURE METHOD” (Quell Therapeutics Limited, priority 2023, published 2025)

Tests used:
[1] = system: bulk Tregs from patient donor material; experiment: % of FOXP3+ cells in the expansion product from patient donor material; type: cell-based, human; details: 100 nM rapamycin
Source text: Leukopaks were supplied by BioIVT.
Leukopaks were used to derive Treg populations. […] Where indicated, CD4+CD25+CD127−/low (Bulk Tregs) were used.

[2] = system: Tregs from patient material; experiment: Transduction efficiency of expansion product (% Dextramer+/QBEND+)
Experimental: A lentiviral vector was used to transduce the cells. The vector encodes an RQR8 safety switch, a FOXP3 polypeptide and an HLA-A2-specific CAR.
The Tregs were rested in Treg culture media (X-VIVO 15 media (Lonza) supplemented with 5% Human AB serum (heat-inactivated; Merck)) containing 100 nM of rapamycin for 1 hour before activation. The Tregs were then activated by adding CD3 and CD28 beads and cultured for 24 or 48 hours (1+24 and 1+48 conditions respectively). At 24 or 48 hours, the cells were washed with fresh Treg culture media and centrifuged. The supernatant was removed and the cell pellet was resuspended in fresh Treg culture media. The expansion was then continued in the fresh Treg culture media (X-VIVO 15 media (Lonza) supplemented with 5% Human AB serum (heat-inactivated; Merck)) further containing IL-2 (Proleukin, Clinigen Healthcare) and lentiviral supernatant but no rapamycin. Cells were re-fed every 2 to 3 days with Treg culture media supplemented with IL-2. Cells were harvested by removing the CD3 and CD28 beads 14 days after activation.

CO[C@H]1C[C@@H]2CC[C@@H](C)[C@@](O)(O2)C(=O)C(=O)N2CCCC[C@H]2C(=O)O[C@H]([C@H](C)C[C@@H]2CC[C@@H](O)[C@H](OC)C2)CC(=O)[C@H](C)/C=C(\C)[C@@H](O)[C@@H](OC)C(=O)[C@H](C)C[C@H](C)/C=C/C=C/C=C/1C [rapamycin]
% CD4+CD25+FOXP3+ cells ([1]; donor LTX-008, 1 + 24 h, day 14 (control 80.8)): 91.2%
% CD4+CD25+FOXP3+ cells ([1]; donor LTX-008, 1 + 48 h, day 14 (control 80.8)): 91.4%
% CD4+CD25+FOXP3+ cells ([1]; donor LTX-0011, 1 + 48 h, day 14 (control 57.3)): 92.6%
% CD4+CD25+FOXP3+ cells ([1]; donor LTX-0012, 1 + 48 h, day 14 (control 92.8)): 98.2%
% CD4+CD25+FOXP3+ cells ([1]; donor LTX-0013, 1 + 48 h, day 14 (control 41.0)): 89.9%
% Dextramer+/QBEND+ ([2]; donor LTX-008, 1 + 24 (control 36)): 30%
% Dextramer+/QBEND+ ([2]; donor LTX-008, 1 + 48 (control 36)): 37.8%
% Dextramer+/QBEND+ ([2]; donor LTX-0011, 1 + 48 (control 20.5)): 30.8%
% Dextramer+/QBEND+ ([2]; donor LTX-0012, 1 + 48 (control 10)): 11%
